In patent US10130830B2, “Preservative systems comprising cationic surfactants” (Laboratorios Miret, S.A., priority 2005, dated 2018):
“And” between values parts separate entries of the source, which are not always exact repeats. Equal entries are not always repeated.

Experiments:
aerobic total count [1] = test: Preservative action in soaked chickpeas, aerobic total count; assay type: cell-based; details: Example 13, soaked chickpeas, LAE 0.2 g/kg in soaking water, mean of triplicate
Experimental: (§1) (4) Determination of Preservative Action in Soaked Chick-peas.
(§2) Chickpeas are the principal ingredients in a lot of ready-to-eat meals. Before cooking them, chickpeas have to be soaked in water at room temperature for 24 hours. During this period, fermentation processes may occur and therefore, chickpeas would not be suitable for eating. The soaking process cannot be made at refrigeration temperatures, because the structure of the chickpeas could be damaged.
(§3) • 1. Chickpeas were soaked in water for 24 hours at 30° C. and 50% HR (in treated samples preservative was added at this point); and • 2. after 24 hours the chickpeas were strained. Analysis • Samples were analysed (aerobic total count and concentration of the cationic surfactant) by triplicate for 24 hours. • Aerobic total count was analysed by stomaching 25 g of chickpeas in 225 g of buffered peptone water. Dilutions were made in buffered peptone water. Tryptone Soya Agar was harvested with each dilution and incubated at 35° C. for 48 hours. • Average values in log cfu/g of three samples per treatment and day of analysis were calculated. • LAE was analysed by HPLC using an internally validated method.

[2] = Concentration of LAE in soaked chickpeas (HPLC); assay type: physicochemical; details: Example 13, soaked chickpeas; for Concentration of LAE (HPLC method) expressed as % of initial dose, mean / Concentration of LAE (HPLC method) expressed as % of initial dose: LAE 0.2 g/kg in soaking water; for Concentration of LAE (HPLC method) expressed as % of initial dose, mean: mean of triplicate; for Concentration of LAE (HPLC method) expressed as % of initial dose: samples 1-3, monohydrochloride
Experimental: as §1, §2, §3

aerobic total count [3] = test: Preservative action in bratwurst sausage, aerobic total count; assay type: cell-based; details: Example 11, bratwurst sausage, LAE 0.2 g/kg
Experimental: (3) Determination of Preservative Action in Bratwurst Sausage.
The ingredients for all samples were : minced pork back, underbelly, spices, salt and additives (milk protein, diphosphate, antioxidant (E-300) and flavour enhance (E-621)).
1. On the cutter the minced pork back meat was ground and the ingredients were added in this order: the additives (except the preservative system), the underbelly, the spices and the preservative system (such as the cationic surfactant alone or in combination with other products). Ice was also added for controlling the temperature (maximum 5° C.) of the meat. The mixing time was 12 minutes.
2. The mass was vacuum mixed (92%) for 1 minute.
3. The mixture was stuffed into natural casings. The casings were previously soaked in a salted water solution for 30 minutes.
4. The bratwurst sausages were put in a cooking trolley. Cooking took place in a oven at 80° C. for 1 hour.
5. After cooking, the bratwurst sausages were sprayed with cool water for 5 minutes and put in a cold-storage room (0-5° C., 24 hours).
6. The next day, bratwurst sausages were packed (each packed contained five sausages) and pasteurised at 80° C. for 30 minutes and then. After, they were soaked in cool water for 30 minutes.
7. Finally, the bratwurst sausages were labelled and stored at 5° C. for 90 days.
Samples were analysed (aerobic total count) for up to 90 days. Aerobic total count was analysed by stomaching 25 g of sausage in 225 g of buffered peptone water. Dilutions were made in buffered peptone water. Tryptone Soya Agar was harvested with each dilution and incubated at 35° C. for 48 hours.
Average values in log cfu/g of three samples per treatment and day of analysis were calculated.

Moulds = test: Preservative action in cosmetic products (Antimicrobial Effectiveness Testing USP 24th Edition), moulds; assay type: cell-based, Aspergillus niger
Text: (1) Determination of Preservative Action in Cosmetic Products. […] This assay consists of the contamination of the protecting formulations with an inoculum mixture of 10^8 cfu/ml concentration, for each of the micro-organisms, and the determination of the number of viable cells in time. This inoculum mixture is composed of the following microorganisms: [table] The cosmetic composition to be analysed is divided into sterile containers with 50 g of product for each flask. Each container is inoculated with 0.5 ml of inoculum (10^8 cfu/ml). The target concentration is 10^6 cfu/ml, approximately. All the containers are kept at a temperature between 20-25° C. and are protected from light. The level of the microbial contamination is checked at 0 hours, 7 days, 14 days and 28 days. The number of colonies is evaluated by dilution in buffer peptone with the appropriate neutraliser agent of the preservative. The culture media used for counting the microorganisms are: […] (2) Determination of Preservative Action in Chicken Breast. Process of Preparation • 1. Fresh chicken breast was diced to pieces • 2. Brine (8.70% sodium chloride and 4.35% tripolyphosphate in water) was added to the fresh chicken in an amount of 11.5 g brine per 88.5 g meat in the control preparation and 11.5 g brine and 88.4 g meat in the preparations treated with preservative. • 3. Brine and meat were mixed during 15 minutes, in the preparations treated with preservative the preservative was added after 14 minutes in an amount of 0.2 g/kg. • 4. Vacuum refrigerate tumbling was made during 30 minutes. • 5. Samples were vacuum-packed in sterile bags and they were cooked at 85° C. for 30 minutes. • 6. The cooked chicken was refrigerated at 4° C. • 7. The cooked chicken was diced in irregular shapes. • 8. Then, the nuggets were stored at 10° C. in sterile vacuum-packed bags. Analysis

CCCCCCCCCCCC(=O)N[C@@H](CCCN=C(N)N)C(=O)OCC.Cl [LAE, ethyl ester of the lauramide of the arginine monohydrochloride]
aerobic total count, mean (aerobic total count [1]; 0 hours): 2.0 log cfu/g | aerobic total count, mean (aerobic total count [1]; 4 hours): 2.0 log cfu/g | aerobic total count, mean (aerobic total count [1]; 8 hours): 2.5 log cfu/g | aerobic total count, mean (aerobic total count [1]; 16 hours): 3.8 log cfu/g | Concentration of LAE (HPLC method) expressed as % of initial dose, mean ([2]; 0 hours): 100 % of initial dose | Concentration of LAE (HPLC method) expressed as % of initial dose ([2]; 0 hours): 100 % of initial dose and 101 % of initial dose | Concentration of LAE (HPLC method) expressed as % of initial dose, mean ([2]; 4 hours): 100 % of initial dose | Concentration of LAE (HPLC method) expressed as % of initial dose ([2]; 4 hours): 101 % of initial dose and 99 % of initial dose and 100 % of initial dose | Concentration of LAE (HPLC method) expressed as % of initial dose, mean ([2]; 8 hours): 98 % of initial dose | Concentration of LAE (HPLC method) expressed as % of initial dose ([2]; 8 hours): 97 % of initial dose and 98 % of initial dose and 99 % of initial dose | Concentration of LAE (HPLC method) expressed as % of initial dose, mean ([2]; 16 hours): 95 % of initial dose | Concentration of LAE (HPLC method) expressed as % of initial dose ([2]; 16 hours): 95 % of initial dose and 96 % of initial dose | Concentration of LAE (HPLC method) expressed as % of initial dose, mean ([2]; 24 hours): 93 % of initial dose | Concentration of LAE (HPLC method) expressed as % of initial dose ([2]; 24 hours): 93 % of initial dose and 92 % of initial dose and 94 % of initial dose | hydrolysis of LAE ([2]; after 24 hours): ~10 % of the original dose | aerobic total count, mean (aerobic total count [3]; day 0, mean of three samples): 2.0 log cfu/g | aerobic total count, mean (aerobic total count [3]; day 15, mean of three samples): 2.0 log cfu/g | aerobic total count, mean (aerobic total count [3]; day 30, mean of three samples): 2.4 log cfu/g | aerobic total count, mean (aerobic total count [3]; day 45, mean of three samples): 2.8 log cfu/g | aerobic total count, mean (aerobic total count [3]; day 60, mean of three samples): 3.4 log cfu/g | aerobic total count, mean (aerobic total count [3]; day 90, mean of three samples): 4.2 log cfu/g | Moulds count (Moulds; Example 10, oil in water emulsion with non-ionic surfactant, 0.2 g/kg, 0 days): 4.3 log cfu/g | Moulds count (Moulds; Example 10, oil in water emulsion with non-ionic surfactant, 0.2 g/kg, 7 days): <2.0 log cfu/g | Moulds count (Moulds; Example 10, oil in water emulsion with non-ionic surfactant, 0.2 g/kg, 14 days): <2.0 log cfu/g | Moulds count (Moulds; Example 12, bath gel, LAE 0.2 g/kg, 0 days): 4.5 log cfu/g | Moulds count (Moulds; Example 12, bath gel, LAE 0.2 g/kg, 7 days): 2.3 log cfu/g | Moulds count (Moulds; Example 12, bath gel, LAE 0.2 g/kg, 14 days): <2.0 log cfu/g | Moulds count (Moulds; Example 15, bath gel, LAE 0.2 g/kg, 0 days): 4.1 log cfu/g | Moulds count (Moulds; Example 15, bath gel, LAE 0.2 g/kg, 7 days): <2.0 log cfu/g | Moulds count (Moulds; Example 15, bath gel, LAE 0.2 g/kg, 14 days): <2.0 log cfu/g | Moulds count (Moulds; Example 17, oil in water emulsion with an ionic emulsifier, 0.20 g of LAE/kg, 0 days): 4.1 log cfu/g | Moulds count (Moulds; Example 17, oil in water emulsion with an ionic emulsifier, 0.20 g of LAE/kg, 7 days): 2.9 log cfu/g | Moulds count (Moulds; Example 17, oil in water emulsion with an ionic emulsifier, 0.20 g of LAE/kg, 14 days): <2.0 log cfu/g | Moulds count (Moulds; Example 19, bath gel, 0.2 g of LAE/kg, 0 days): 4.1 log cfu/g | Moulds count (Moulds; Example 19, bath gel, 0.2 g of LAE/kg, 7 days): 2.0 log cfu/g | Moulds count (Moulds; Example 19, bath gel, 0.2 g of LAE/kg, 14 days): <2.0 log cfu/g
